Test results published in patent publication US5854204A, “Aβ peptides that modulate β-amyloid aggregation” (priority 1996, dated 1998).
Where two headings read alike, the source gives them in different places. Numbered stars: 1 amine (or outer) side, 2 acyl side, 3 side chain; on linkers, the order of the positions; unused ones are H or OH. Square brackets hold non-standard residues; d marks the D form. Ends that are not written are not given here. Peptide text beside a SMILES is read from it. * marks the point of attachment. Cholyl = C[C@H](CCC(=O)*)[C@H]1CC[C@H]2[C@@H]3[C@H](O)C[C@@H]4C[C@H](O)CC[C@]4(C)[C@H]3C[C@H](O)[C@]12C; X2 = O=C(C1(O)C[C@H](O)[C@@H](N[*:1])[C@H]([C@H](O)[C@H](O)CO)O1)[*:2]; Tyr(3-I) = N[C@@H](Cc1ccc(O)c(I)c1)C(=O)O

What was measured:
Aβ1-40 [1] = target: T1, Aβ1-40 (Homo sapiens, UniProt P05067); assay: biochemical; details: read-out: % Inucl'n (percent reduction in maximum turbidity);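 also: Aβ nucleation assay tracking fiber polymerization from monomer by turbidity (light scattering), shaken continuously in 96-well plates, read every 15 min over 5 h, compared with compound-free control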
T1 sequence (P05067 672-711): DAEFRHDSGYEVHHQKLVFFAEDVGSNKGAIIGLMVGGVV
Source text: (§1) The nucleation assay is employed to determine the ability of test compounds to alter (e.g. inhibit) the early events in formation of β-AP fibers from monomeric β-AP. […] The time delay before polymerization of β-AP monomer can be quantified as well as the extent of formation of insoluble fiber by light scattering (turbidity). Polymerization reaches equilibrium when the maximum turbidity reaches a plateau. […] The threshold of sensitivity for the measurement of turbidity is in the range of 15-20 μM β-AP. […] This assay can be performed using stirring or shaking to accelerate polymerization, thereby increasing the speed of the assay. Moreover the assay can be adapted to a 96-well plate format to screen multiple compounds.
(§2) HFIP-solubilized peptide is sonicated in a waterbath sonicator for 5 min at highest setting, then evaporated to dryness under a stream of argon. […] Test compounds are dissolved in DMSO at a 100× concentration. […] Ten microliters of the mixture is then added to the bottom of a well of a Corning Costar ultra low binding 96-well plate (Corning Costar, Cambridge Mass.; cat. No. 2500). […] The plate is then returned to the shaker and shaken continuously for 5 hours. Turbidity readings are taken at 15 minute intervals.
(§3) Accordingly a fold increase in lag time of 1.0 indicates no change in lag time, whereas numbers >1.0 indicate an increase in lag time. The "% inhibition of plateau", which is a measure of the ability of the compound to decrease the total amount of aggregation, refers to the reduction of the final turbidity in the presence of the test compound expressed as a percent of the control without the test compound.

Aβ1-40 [2] = target: T1, Aβ1-40
Source text: as §1, §2, §3

[3] = Table VI, unmodified peptides, 100 mole %

Compound | inhibition at 100 % (Aβ1-40 [1]) [%] | % Inhibition of Plateau (Aβ1-40 [2]) | Fold Increase in Lag Time (Aβ1-40 [2]; [3]) | also measured
C[C@H](CCC(=O)NCC(=O)N[C@@H](Cc1ccccc1)C(=O)N[C@@H](Cc1ccccc1)C(=O)O)[C@H]1CC[C@H]2[C@@H]3[C@H](O)C[C@@H]4C[C@H](O)CC[C@]4(C)[C@H]3C[C@H](O)[C@]12C [PPI-438] | 0 | – | – | –
CC(=O)N[C@H]1[C@H]([C@H](O)[C@H](O)CO)OC(O)(C(=O)N[C@@H](Cc2c[nH]cn2)C(=O)N[C@@H](CCC(N)=O)C(=O)N[C@@H](CCCCN)C(=O)N[C@@H](CC(C)C)C(=O)N[C@H](C(=O)N[C@@H](Cc2ccccc2)C(=O)N[C@@H](Cc2ccccc2)C(N)=O)C(C)C)C[C@@H]1O (stereo partly shown) [PPI-316] (Ac-[X2]HQKLVFF-NH2) | -15 | – | – | –
CC(C)[C@H](NC(=O)[C@H](C)NC(=O)CC[C@@H](C)[C@H]1CC[C@H]2[C@@H]3[C@H](O)C[C@@H]4C[C@H](O)CC[C@]4(C)[C@H]3C[C@H](O)[C@]12C)C(=O)N[C@@H](C)C(=O)N[C@@H](Cc1ccccc1)C(=O)N[C@@H](C)C(=O)O [PPI-400] (Cholyl-AVAFA-OH) | -15 | – | – | –
CC(C)C[C@H](NC(=O)[C@H](CCCCN)NC(=O)[C@H](CCC(N)=O)NC(=O)CC[C@@H](C)[C@H]1CC[C@H]2[C@@H]3[C@H](O)C[C@@H]4C[C@H](O)CC[C@]4(C)[C@H]3C[C@H](O)[C@]12C)C(=O)N[C@H](C(=O)N[C@@H](Cc1ccccc1)C(=O)O)C(C)C [PPI-366] (Cholyl-QKLVF-OH) | – | ~ 0% | – | –
CC[C@H](C)[C@H](NC(=O)[C@H](C)NC(=O)CNC(=O)[C@H](CCCCN)NC(=O)[C@H](CC(N)=O)NC(=O)[C@H](CO)NC(=O)[C@H](Cc1ccccc1)NC(=O)[C@H](Cc1ccccc1)NC(=O)[C@@H](NC(=O)[C@H](CC(C)C)NC(=O)[C@H](CCCCN)NC(=O)[C@H](CCC(N)=O)NC(=O)[C@H](Cc1c[nH]cn1)NC(=O)[C@H](Cc1c[nH]cn1)NC(=O)[C@@H](NC(=O)[C@H](CCC(=O)O)NC(=O)[C@H](Cc1ccc(O)cc1)NC(=O)CNC(=O)[C@H](CO)NC(=O)[C@H](CC(=O)O)NC(=O)[C@H](Cc1c[nH]cn1)NC(=O)[C@H](CCCNC(=N)N)NC(=O)[C@H](Cc1ccccc1)NC(=O)[C@H](CCC(=O)O)NC(=O)[C@H](C)NC(=O)[C@@H](N)CC(=O)O)C(C)C)C(C)C)C(=O)N[C@H](C(=O)NCC(=O)N[C@@H](CC(C)C)C(=O)N[C@@H](CCSC)C(=O)N[C@H](C(=O)NCC(=O)NCC(=O)N[C@H](C(=O)N[C@H](C(=O)O)C(C)C)C(C)C)C(C)C)[C@@H](C)CC [PPI-249, Aβ1-20, 26-40 (Δ21-25)] | – | ~ 0% | 2.37 fold | –
CC[C@H](C)[C@H](NC(=O)[C@H](C)NC(=O)CNC(=O)[C@H](CCCCN)NC(=O)[C@H](CC(N)=O)NC(=O)[C@H](CO)NC(=O)CNC(=O)[C@@H](NC(=O)[C@H](CC(=O)O)NC(=O)[C@H](CCC(=O)O)NC(=O)[C@H](C)NC(=O)[C@H](Cc1ccccc1)NC(=O)[C@H](Cc1ccccc1)NC(=O)[C@@H](NC(=O)[C@H](CC(C)C)NC(=O)[C@H](CCCCN)NC(=O)[C@H](Cc1ccc(O)cc1)NC(=O)CNC(=O)[C@H](CO)NC(=O)[C@H](CC(=O)O)NC(=O)[C@H](Cc1c[nH]cn1)NC(=O)[C@H](CCCNC(=N)N)NC(=O)[C@H](Cc1ccccc1)NC(=O)[C@H](CCC(=O)O)NC(=O)[C@H](C)NC(=O)[C@@H](N)CC(=O)O)C(C)C)C(C)C)C(=O)N[C@H](C(=O)NCC(=O)N[C@@H](CC(C)C)C(=O)N[C@@H](CCSC)C(=O)N[C@H](C(=O)NCC(=O)NCC(=O)N[C@H](C(=O)N[C@H](C(=O)O)C(C)C)C(C)C)C(C)C)[C@@H](C)CC [PPI-251, Aβ1-10, 16-40 (Δ11-15)] | – | ~ 0% | ~ 1.2 fold | –
CC(C)C[C@H](NC(=O)CC[C@@H](C)[C@H]1CC[C@H]2[C@@H]3[C@H](O)C[C@@H]4C[C@H](O)CC[C@]4(C)[C@H]3C[C@H](O)[C@]12C)C(=O)N[C@H](C(=O)N[C@@H](Cc1ccc(O)c(I)c1)C(=O)N[C@@H](Cc1ccccc1)C(=O)N[C@@H](C)C(=O)O)C(C)C [PPI-396] (Cholyl-LV[Tyr(3-I)]FA-OH) | 100 | – | – | –
CC[C@H](C)[C@H](NC(=O)[C@H](C)NC(=O)CNC(=O)[C@H](CCCCN)NC(=O)[C@H](CC(N)=O)NC(=O)[C@H](CO)NC(=O)CNC(=O)[C@@H](NC(=O)[C@H](CC(=O)O)NC(=O)[C@H](CCC(=O)O)NC(=O)[C@H](C)NC(=O)[C@H](CCC(N)=O)NC(=O)[C@H](Cc1c[nH]cn1)NC(=O)[C@H](Cc1c[nH]cn1)NC(=O)[C@@H](NC(=O)[C@H](CCC(=O)O)NC(=O)[C@H](Cc1ccc(O)cc1)NC(=O)CNC(=O)[C@H](CO)NC(=O)[C@H](CC(=O)O)NC(=O)[C@H](Cc1c[nH]cn1)NC(=O)[C@H](CCCNC(=N)N)NC(=O)[C@H](Cc1ccccc1)NC(=O)[C@H](CCC(=O)O)NC(=O)[C@H](C)NC(=O)[C@@H](N)CC(=O)O)C(C)C)C(C)C)C(=O)N[C@H](C(=O)NCC(=O)N[C@@H](CC(C)C)C(=O)N[C@@H](CCSC)C(=O)N[C@H](C(=O)NCC(=O)NCC(=O)N[C@H](C(=O)N[C@H](C(=O)O)C(C)C)C(C)C)C(C)C)[C@@H](C)CC [PPI-250, Aβ1-15, 21-40 (Δ16-20)] | – | ~ 0% | 1.55 fold | –
CC(C)C[C@@H](NC(=O)CC[C@@H](C)[C@H]1CC[C@H]2[C@@H]3[C@H](O)C[C@@H]4C[C@H](O)CC[C@]4(C)[C@H]3C[C@H](O)[C@]12C)C(=O)N[C@@H](C(=O)N[C@H](Cc1ccccc1)C(=O)N[C@H](Cc1ccccc1)C(=O)N[C@H](C)C(=O)O)C(C)C [PPI-433] | 27 | – | – | –
HDSGYEVHHQKLVFF [PPI-226, Aβ6-20] | – | 76% | 1.66 fold | –
CC(C)C[C@H](NC(=O)[C@H](CCCCN)NC(=O)[C@H](CCC(N)=O)NC(=O)[C@H](Cc1c[nH]cn1)NC(=O)[C@H](Cc1c[nH]cn1)NC(=O)[C@@H](NC(=O)CC[C@@H](C)[C@H]1CC[C@H]2[C@@H]3[C@H](O)C[C@@H]4C[C@H](O)CC[C@]4(C)[C@H]3C[C@H](O)[C@]12C)C(C)C)C(=O)N[C@H](C(=O)N[C@@H](Cc1ccccc1)C(=O)N[C@@H](Cc1ccccc1)C(=O)O)C(C)C [PPI-346] (Cholyl-VHHQKLVFF-OH) | – | ~ 0% | – | –
C[C@H](CCC(=O)O)[C@H]1CC[C@H]2[C@@H]3[C@H](O)C[C@@H]4C[C@H](O)CC[C@]4(C)[C@H]3C[C@H](O)[C@]12C [PPI-293, Cholic acid, reference compound] | 0 | – | – | inhibitory activity on Aβ aggregation (Aβ1-40 [2]): had no effect on Aβ aggregation
C[C@H](CCC(=O)N[C@@H](Cc1c[nH]cn1)C(=O)N[C@@H](CC(=O)O)C(=O)N[C@@H](CO)C(=O)NCC(=O)N[C@@H](Cc1ccc(O)cc1)C(N)=O)[C@H]1CC[C@H]2[C@@H]3[C@H](O)C[C@@H]4C[C@H](O)CC[C@]4(C)[C@H]3C[C@H](O)[C@]12C [PPI-339] (Cholyl-HDSGY-NH2) | – | 13% | – | –
CC(C)C[C@H](NC(=O)CC[C@@H](C)[C@H]1CC[C@H]2[C@@H]3[C@H](O)C[C@@H]4C[C@H](O)CC[C@]4(C)[C@H]3C[C@H](O)[C@]12C)C(=O)N[C@H](C(=O)N[C@@H](Cc1ccccc1)C(=O)N[C@@H](Cc1ccc(O)c(I)c1)C(=O)N[C@@H](C)C(=O)O)C(C)C [PPI-397] (Cholyl-LVF[Tyr(3-I)]A-OH) | 95 | – | – | –
CC(C)C[C@H](NC(=O)[C@H](CCCCN)NC(=O)[C@H](CCC(N)=O)NC(=O)[C@H](Cc1c[nH]cn1)NC(=O)CC[C@@H](C)[C@H]1CC[C@H]2[C@@H]3[C@H](O)C[C@@H]4C[C@H](O)CC[C@]4(C)[C@H]3C[C@H](O)[C@]12C)C(=O)N[C@H](C(=O)N[C@@H](Cc1ccccc1)C(=O)N[C@@H](Cc1ccccc1)C(N)=O)C(C)C [PPI-315] (Cholyl-HQKLVFF-NH2) | – | – | – | inhibition at 33 % (Aβ1-40 [1]): 5%
CC(C)C[C@H](NC(=O)CC[C@@H](C)[C@H]1CC[C@H]2[C@@H]3[C@H](O)C[C@@H]4C[C@H](O)CC[C@]4(C)[C@H]3C[C@H](O)[C@]12C)C(=O)N[C@H](C(=O)N[C@@H](Cc1ccccc1)C(=O)N[C@@H](C)C(=O)N[C@@H](C)C(=O)O)C(C)C [PPI-391] (Cholyl-LVFAA-OH) | 40 | – | – | –
KLVFFAEDVGSNKGA [PPI-228, Aβ16-30] | – | 100% | > 4.5 fold | –
CC(C)[C@H](NC(=O)[C@H](CCC(=O)O)NC(=O)[C@H](Cc1ccc(O)cc1)NC(=O)CNC(=O)[C@H](CO)NC(=O)[C@H](CC(=O)O)NC(=O)[C@H](Cc1c[nH]cn1)NC(=O)CC[C@@H](C)[C@H]1CC[C@H]2[C@@H]3[C@H](O)C[C@@H]4C[C@H](O)CC[C@]4(C)[C@H]3C[C@H](O)[C@]12C)C(=O)N[C@@H](Cc1c[nH]cn1)C(=O)N[C@@H](Cc1c[nH]cn1)C(N)=O [PPI-331] (Cholyl-HDSGYEVHH-NH2) | – | 29% | – | –
CC(C)C[C@H](NC(=O)[C@H](CCCCN)NC(=O)[C@H](CCC(N)=O)NC(=O)[C@H](Cc1c[nH]cn1)NC(=O)[C@H](Cc1c[nH]cn1)NC(=O)[C@@H](NC(=O)[C@H](CCC(=O)O)NC(=O)[C@H](Cc1ccc(O)cc1)NC(=O)CNC(=O)[C@H](CO)NC(=O)[C@H](CC(=O)O)NC(=O)[C@H](Cc1c[nH]cn1)NC(=O)CC[C@@H](C)[C@H]1CC[C@H]2[C@@H]3[C@H](O)C[C@@H]4C[C@H](O)CC[C@]4(C)[C@H]3C[C@H](O)[C@]12C)C(C)C)C(=O)N[C@H](C(=O)N[C@@H](Cc1ccccc1)C(N)=O)C(C)C [PPI-321] (Cholyl-HDSGYEVHHQKLVF-NH2) | – | – | – | inhibitory activity on Aβ aggregation (Aβ1-40 [2]): loss of inhibitory activity; Fold Increase in Lag Time (Aβ1-40 [2]; Table III, 33 mole %): 1.4 fold; Fold Increase in Lag Time (Aβ1-40 [2]; Table IV, 100 mole %): 1.2 fold
SNKGAIIGLMVGGVV [PPI-230, Aβ26-40] | – | ~ 0% | 0.8 fold | –
AEDVGSNKGAIIGLM [PPI-229, Aβ21-35] | – | ~ 0% | ~ 1 fold | –
CC(C)C[C@H](NC(=O)OC(C)(C)C)C(=O)N[C@H](C(=O)N[C@@H](Cc1ccccc1)C(=O)N[C@@H](Cc1ccccc1)C(=O)N[C@@H](C)C(=O)O)C(C)C [PPI-435] | – | – | – | % Inucl'n (percent reduction in maximum turbidity) (Aβ1-40 [2]): -5%; ΔLag (ratio of lag time with test compound to lag time of control) (Aβ1-40 [2]; Table V, 100 mole % inhibitor relative to Aβ1-40): 3.0
CC(C)C[C@H](NC(=O)CC[C@@H](C)[C@H]1CC[C@H]2[C@@H]3CC[C@@H]4C[C@H](O)CC[C@]4(C)[C@H]3C[C@H](O)[C@]12C)C(=O)N[C@H](C(=O)N[C@@H](Cc1ccccc1)C(=O)N[C@@H](Cc1ccccc1)C(=O)N[C@@H](C)C(=O)O)C(C)C [PPI-424] | – | – | – | % Inucl'n (percent reduction in maximum turbidity) (Aβ1-40 [2]): -114%
